According to PubChem BioAssay (NCI):
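Step 1: Grow cells in 96-well plates. Step 2: Expose to compound for 48 hours at 5 concentrations. Step 3: Interpolate endpoints linearly; if unreached, use highest concentration. The concentration for 50% growth inhibition is given as GI50. TGI: concentration producing complete growth inhibition.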

Experiments:
Assay in all cases: NCI-60 cell line screen, 48 h
A549 NSCLC = test system: A549 NSCLC
CCRF-CEM leukemia = test system: CCRF-CEM leukemia
HCT-116 colon = test system: HCT-116 colon
OVCAR-4 ovarian = test system: OVCAR-4 ovarian
OVCAR-5 ovarian = test system: OVCAR-5 ovarian
RPMI-8226 leukemia = test system: RPMI-8226 leukemia
SK-MEL-28 melanoma = test system: SK-MEL-28 melanoma
SK-OV-3 ovarian = test system: SK-OV-3 ovarian
SW-620 colon = test system: SW-620 colon
DU-145 prostate = test system: DU-145 prostate

SMILES | TGI (A549 NSCLC) [µM] | TGI (CCRF-CEM leukemia) [µM] | TGI (HCT-116 colon) [µM] | TGI (OVCAR-4 ovarian) [µM] | TGI (OVCAR-5 ovarian) [µM] | TGI (RPMI-8226 leukemia) [µM] | TGI (SK-MEL-28 melanoma) [µM] | TGI (SK-OV-3 ovarian) [µM] | TGI (SW-620 colon) [µM] | TGI (DU-145 prostate) [µM] | GI50 (A549 NSCLC) [µM] | GI50 (CCRF-CEM leukemia) [µM] | GI50 (DU-145 prostate) [µM] | GI50 (HCT-116 colon) [µM] | GI50 (OVCAR-4 ovarian) [µM] | GI50 (RPMI-8226 leukemia) [µM] | GI50 (SK-MEL-28 melanoma) [µM] | GI50 (SW-620 colon) [µM]
CO/C(=N\N=C\c1ccc(Cl)cc1)c1ccncc1 | > 100 | > 100 | > 100 | > 100 | > 100 | > 100 | > 100 | > 100 | > 100 |  |  |  |  |  |  |  |  | 
O=C(O)CC(NC(=O)Nc1ccc([N+](=O)[O-])cc1)C(=O)Nc1ccc([N+](=O)[O-])cc1 (configuration not stated) | > 100 | > 100 | > 100 | > 100 | > 100 | > 100 | > 100 | > 100 | > 100 | > 100 |  |  |  |  |  |  |  | 
O=S(=O)(c1ccccc1)n1c(C(O)c2ccncc2)cc2ccccc21 (configuration not stated) | > 100 | > 100 | > 100 | > 100 | > 100 | > 100 | > 100 | > 100 | > 100 | > 100 |  |  |  |  |  |  |  | 
CC(C)OC(=O)c1ccc(NCC2=CC(=O)C=CC2=O)cc1Cl | > 100 |  | > 53.2 | 32 | 70.1 |  | 56.5 | > 100 | > 53.5 | 42.3 |  |  |  |  |  |  |  | 
COc1ccc2oc(S(=O)(=O)N3CC(CCl)c4ccc([N+](=O)[O-])cc43)cc2c1 (configuration not stated) | 18.1 | > 100 | 4.22 | > 100 | > 100 | > 100 | > 61.6 | 4.83 | > 100 | 0.317 |  |  |  |  |  |  |  | 
NNC(=O)CC(=O)Nc1ccc(Cl)cc1 | > 100 | > 100 | > 100 | > 100 | > 100 | > 100 | > 100 | > 100 | > 100 | > 100 |  |  |  |  |  |  |  | 
CN(C)N=Nc1ccc([N+](=O)[O-])cc1C(N)=O | > 100 | > 100 | > 100 | > 100 | > 100 | > 100 | > 100 | > 100 | > 100 |  |  |  |  |  |  |  |  | 
COc1ccc(-c2oc3ccc(C)cc3c(=O)c2O)cc1 | > 100 | > 100 | > 100 | > 100 | > 100 | > 100 | > 100 | > 100 | > 100 | > 100 |  |  |  |  |  |  |  | 
O=C(CCc1cccc(O)c1)NCCc1cccc(O)c1 | > 100 | > 100 | > 100 | > 100 | > 100 |  | > 100 | > 100 |  | > 100 |  |  |  |  |  |  |  | 
COc1cc2c(cc1OCCCC(=O)Nc1cc(C(=O)Nc3cc(C(=O)Nc4cc(C(=O)NCCCN(C)C)n(C)c4)n(C)c3)n(C)c1)N=C[C@@H]1CCCN1C2=O | 36.1 | > 100 | 3.45 | 3.15 | 9.38 | 14.6 | 4.66 | 28.4 | 5.98 | 10.2 |  |  |  |  |  |  |  | 
COc1ccc(/C=N\N2CC(=O)N3C4C=CC(CC4)N3C2=O)cc1 (configuration not stated) | > 100 | > 100 | > 100 |  | > 100 | > 100 | > 100 | > 100 | > 100 | > 100 |  |  |  |  |  |  |  | 
CCCSc1cc(Cl)c(C)cc1S(=O)(=O)n1ccnc1OCCCN(C)C | > 100 | > 100 | > 100 | > 100 | > 100 |  | > 100 | > 100 | > 100 | > 100 |  |  |  |  |  |  |  | 
COc1ccc2c(c1)OCC1(O)Cc3ccccc3OC21 (configuration not stated) | > 100 | > 100 | > 100 | > 100 | > 100 | > 100 |  | > 100 | > 100 | > 100 |  |  |  |  |  |  |  | 
Brc1ccc2c(-c3nc(-c4c[nH]c5ccccc45)cs3)c[nH]c2c1 | 74.6 | > 100 | > 100 | > 100 | > 100 | > 100 | > 93.6 | > 100 | > 86.8 | > 100 |  |  |  |  |  |  |  | 
Cn1ccnc1CCc1ccc(F)cc1F | > 100 | > 100 |  | > 100 | > 100 | > 100 | > 100 | > 100 | > 100 | > 100 |  |  |  |  |  |  |  | 
COc1c(-c2cc(C)c(Cl)c(=O)[nH]2)c(O)c(OC)c2occc12 | > 100 |  | > 100 | > 100 | > 100 | > 100 | > 100 | > 100 | > 100 | > 100 |  |  |  |  |  |  |  | 
Cc1cn(C2CC(O)C(CO)C2C)c(=O)[nH]c1=O (configuration not stated) | > 100 | > 100 | > 100 | > 100 | > 100 |  | > 100 | > 100 | > 100 |  |  |  |  |  |  |  |  | 
C(=N\Nc1ncc(-c2cc3cc4c(cc3o2)OCO4)s1)/c1c[nH]c2ccccc12 | 3.1 | > 100 | 10.2 | 4.1 |  | > 100 | 12.2 |  | 3 | 3.31 | 0.487 | 0.392 | 0.739 | 2.13 | 0.503 | 1.55 | 3.17 | 1.2
CCCC1NC(C#N)(C#N)C(CCC)NC1(C#N)C#N (configuration not stated) | > 100 | 17.8 | > 37.1 | > 100 | > 90.1 | 0.943 | > 100 | > 100 | > 100 | > 43.1 |  |  |  |  |  |  |  | 
COc1cc2c(cc1OC)C1CN3C(=O)CCC3C(O)C1c1cc(OC)c(OC)cc1-2 (configuration not stated) | > 100 | > 100 | > 100 | > 100 | > 100 | > 100 | > 100 | > 100 | > 100 | > 100 |  |  |  |  |  |  |  | 
O=C1C=Cc2c(Cl)sc(Cl)c21 | > 90.6 | 1.36 | 2.33 | 37.1 | 24.8 | 4.02 | 3.97 | 28.5 |  | 5.29 |  |  |  |  |  |  |  | 
